Laboratory results taken from article PMC7731314, “Tropinone-Derived Alkaloids as Potent Anticancer Agents: Synthesis, Tyrosinase Inhibition, Mechanism of Action, DFT Calculation, and Molecular Docking Studies” (International Journal of Molecular Sciences, 2020).
Where two headings read alike, the source gives them in different places.

What was measured:
A549 cells = assay: Annexin V-FITC/PI cell death by flow cytometry, A549; assay type: cell-based, human; details: for IC50: Homo sapiens, read-out: IC50 for apoptosis
Method: The quantitative analysis of compound 3a-induced cell death was performed using an Annexin V-fluorescein isothiocyanate (FITC)/propidium iodide (PI) apoptosis kit (BD Biosciences, BD Pharmingen™, San Jose, CA, USA) as previously described. Briefly, the RPMI 8226 or A549 cells growing on the 6-well plates in the culture medium with 2% FBS were subjected to increasing concentrations of compound 3a (2.5, 5, 10, 20, or 40 μM) for 24 and 48 h. After the treatment, the cells were harvested, centrifuged at 1000 rpm and room temperature (RT) for 5 min, washed twice with PBS, and stained with […] of AnnexinV-FITC and […] of PI. After incubation for 15 min in the dark at room temperature, the cells were immediately analyzed using FACS Calibur. The intensity of fluorescence of AnnexinV-FITC and PI stained cells was determined by acquisition of at least 10,000 events per sample within the rate >60 events/s. The FACS data were analyzed using Cell Quest Pro Version 6.0. for the Macintosh operating system. The data were analyzed to determine the percentage of viable, early apoptotic, late apoptotic, and necrotic cells.

[1] = system: human breast adenocarcinoma (MDA-MB-231) cell line; assay: MTT cell proliferation assay, MDA-MB-231; assay type: cell-based; details: MDA-MB-231, antiproliferative, MTT, 72 h, read-out: IC50 ± SD MDA-MB-231
From the text: (§1) The influence of the tested compounds on the proliferation of melanoma B16F10 and breast MDA-MB-231 cells was estimated with the MTT assay as described previously. The cells counted using an automated cell counter (Countess® II FL, Invitrogen by Thermo Fisher Scientific Inc., Waltham, MA USA) and plated in 96-well plates (Nunc Edge 2F, Thermo Fisher Scientific Inc.) at a density of 0.1 × 10^4 and 0.2 × 10^4 per well, respectively. A total of twenty-four hours later, drugs were applied with final concentration: 5, 0.5, 0.05, and 0.005 μg/mL, and after an additional seventy-two hours MTT staining was performed as follows: twenty microliters of 5 mg/mL MTT solution and was added to each well of 96-well plate incubated for 2 h. Subsequently, the medium was removed and crystals of formazan were solubilized in pure isopropanol. Absorbance readout was conducted immediately using plate reader Multiskan Spectrum at 570 nm (Thermo Electron Corporation, Waltham, MA, USA). The background optical density was measured in the wells filled with culture medium, without the cells. The biological evaluation was performed as three independent experiments. The IC50 values were calculated using ED50plus v 1.0 freeware software and the mean response and standard deviation were calculated using Excel software. All of the chemicals were obtained from Sigma-Aldrich.

[2] = system: human lung carcinoma (A549) cell line; assay: MTT cell proliferation assay, A549; assay type: cell-based; details: antiproliferative, 96 h, read-out: IC50 ± SD A549
Method: The influence of the tested compounds on the proliferation of RPMI 8226 and A549 cells was estimated with the MTT assay as described previously. Briefly, 1 × 10^4 cells/mL (RPMI 8226) or 0.2 × 10^4 (A549) cells per well were seeded into 96-well plates and cultured (in growth medium containing 10% FBS) with different concentrations of each compound ranging from 3.125 to 100 μM. The control cells were treated with the vehicle DMSO (0.1%).

[3] = system: mouse skin melanoma (B16-F10) cell line; assay: MTT cell proliferation assay, B16-F10; assay type: cell-based; details: B16-F10, antiproliferative, MTT, 72 h, read-out: IC50 ± SD B16-F10
From the text: as §1

RPMI 8226 cells = assay type: cell-based, human
Method: The RPMI 8226 or A549 cells were seeded in 6-well plates in medium containing 10% FBS without or with compound 3a (2.5, 5, 10, 20, or 40 µM). After 24-h and 48-h treatment, the cell cycle analysis was performed by determination of the DNA contents on the basis of PI staining as described previously. Briefly, the cells were harvested, washed with PBS, and fixed overnight with 80% ethanol at −20 °C. After that, the cells were washed with PBS and stained with PI using PI/RNase Staining Buffer (BD Biosciences, BD Pharmingen™, USA) for 30 min in darkness at RT. Next, the stained cells were analyzed using FACS Calibur. The intensity of PI fluorescence of individual nuclei was determined and at least 10 000 events were measured within an acquisition rate >60 events/s. The FACS data were analyzed using Cell Quest Pro Version 6.0 (BD Biosciences, San Jose, CA, USA). for the Macintosh operating system. The data were analyzed to determine the percentage of cells at the sub-G1 phase (apoptotic cells) and each phase of the cell cycle (G1, S, and G2/M).

Compound: CN1C2CCC1CC(=NNc1nc(-c3ccc(I)cc3)cs1)C2 [Compound 3a, 4-(4-Iodophenyl)-2-(2-(8-methyl-8-azabicyclo[3.2.1]octan-3-ylidene)hydrazinyl)thiazole]
- Apoptosis (early + late) (A549 cells; A549, 2.5 µM, 24 hours): 14.30±2.21 % of cells ± SD
- Necrosis (A549 cells; A549, 2.5 µM, 24 hours): 4.79±1.14 % of cells ± SD
- Apoptosis (early + late) (A549 cells; A549, 2.5 µM, 48 hours): 18.41±3.95 % of cells ± SD
- Necrosis (A549 cells; A549, 2.5 µM, 48 hours): 4.11±1.44 % of cells ± SD
- Apoptosis (early + late) (A549 cells; A549, 5 µM, 24 hours): 14.82±2.42 % of cells ± SD
- Necrosis (A549 cells; A549, 5 µM, 24 hours): 4.40±1.66 % of cells ± SD
- Apoptosis (early + late) (A549 cells; A549, 5 µM, 48 hours): 22.48±8.36 % of cells ± SD
- Necrosis (A549 cells; A549, 5 µM, 48 hours): 4.93±4.26 % of cells ± SD
- Apoptosis (early + late) (A549 cells; A549, 10 µM, 24 hours): 18.18±2.52 % of cells ± SD
- Necrosis (A549 cells; A549, 10 µM, 24 hours): 4.87±1.35 % of cells ± SD
- Apoptosis (early + late) (A549 cells; A549, 10 µM, 48 hours): 27.17±11.71 % of cells ± SD
- Necrosis (A549 cells; A549, 10 µM, 48 hours): 4.09±2.58 % of cells ± SD
- Apoptosis (early + late) (A549 cells; A549, 20 µM, 24 hours): 23.43±4.57 % of cells ± SD
- Necrosis (A549 cells; A549, 20 µM, 24 hours): 4.56±1.90 % of cells ± SD
- Apoptosis (early + late) (A549 cells; A549, 20 µM, 48 hours): 40.20±9.87 % of cells ± SD
- Necrosis (A549 cells; A549, 20 µM, 48 hours): 4.87±3.04 % of cells ± SD
- Apoptosis (early + late) (A549 cells; A549, 40 µM, 24 hours): 73.96±19.94 % of cells ± SD
- Necrosis (A549 cells; A549, 40 µM, 24 hours): 7.89±1.10 % of cells ± SD
- Apoptosis (early + late) (A549 cells; A549, 40 µM, 48 hours): 89.43±6.65 % of cells ± SD
- Necrosis (A549 cells; A549, 40 µM, 48 hours): 8.81±6.51 % of cells ± SD
- Necrosis induction (A549 cells; A549, up to highest concentration 40 µM): did not induce necrosis
- IC50 (A549 cells; A549, 24 h): 27.7 µM
- IC50 (A549 cells; A549, 48 h): 17.4 µM
- IC50 [1]: 2.26 ± 0.38 µM
- IC50 [2]: 13.8 ± 1.9 µM
- IC50 [3]: 1.51 ± 0.14 µM
- Cell cycle distribution G0/G1 (RPMI 8226 cells; RPMI 8226, 2.5 µM, 24 h): 41.14±1.03 % of cells
- Cell cycle distribution G2 (RPMI 8226 cells; RPMI 8226, 2.5 µM, 24 h): 22.35±1.19 % of cells
- Cell cycle distribution S (RPMI 8226 cells; RPMI 8226, 2.5 µM, 24 h): 21.59±1.77 % of cells
- Cell cycle distribution Sub-G1 (RPMI 8226 cells; RPMI 8226, 2.5 µM, 24 h): 15.53±2.23 % of cells
- Cell cycle distribution G0/G1 (RPMI 8226 cells; RPMI 8226, 2.5 µM, 48 h): 35.8±1.49 % of cells
- Cell cycle distribution G2 (RPMI 8226 cells; RPMI 8226, 2.5 µM, 48 h): 16.99±2 % of cells
- Cell cycle distribution S (RPMI 8226 cells; RPMI 8226, 2.5 µM, 48 h): 26.22±0.97 % of cells
- Cell cycle distribution Sub-G1 (RPMI 8226 cells; RPMI 8226, 2.5 µM, 48 h): 21.49±0.94 % of cells
- Cell cycle distribution G0/G1 (RPMI 8226 cells; RPMI 8226, 5 µM, 24 h): 38.23±6.83 % of cells
- Cell cycle distribution G2 (RPMI 8226 cells; RPMI 8226, 5 µM, 24 h): 21.31±4.02 % of cells
- Cell cycle distribution S (RPMI 8226 cells; RPMI 8226, 5 µM, 24 h): 18.68±2.58 % of cells
- Cell cycle distribution Sub-G1 (RPMI 8226 cells; RPMI 8226, 5 µM, 24 h): 21.32±6.2 % of cells
- Cell cycle distribution G0/G1 (RPMI 8226 cells; RPMI 8226, 5 µM, 48 h): 40.3±3.15 % of cells
- Cell cycle distribution G2 (RPMI 8226 cells; RPMI 8226, 5 µM, 48 h): 15.23±5.04 % of cells
- Cell cycle distribution S (RPMI 8226 cells; RPMI 8226, 5 µM, 48 h): 19.12±2.51 % of cells
- Cell cycle distribution Sub-G1 (RPMI 8226 cells; RPMI 8226, 5 µM, 48 h): 25.53±7.59 % of cells
- Cell cycle distribution G0/G1 (RPMI 8226 cells; RPMI 8226, 10 µM, 24 h): 38.08±9.38 % of cells
- Cell cycle distribution G2 (RPMI 8226 cells; RPMI 8226, 10 µM, 24 h): 17.45±2.75 % of cells
- Cell cycle distribution S (RPMI 8226 cells; RPMI 8226, 10 µM, 24 h): 21.4±3.5 % of cells
- Cell cycle distribution Sub-G1 (RPMI 8226 cells; RPMI 8226, 10 µM, 24 h): 23.53±7.04 % of cells
- Cell cycle distribution G0/G1 (RPMI 8226 cells; RPMI 8226, 10 µM, 48 h): 38.5±2.77 % of cells
- Cell cycle distribution G2 (RPMI 8226 cells; RPMI 8226, 10 µM, 48 h): 18.78±2.32 % of cells
- Cell cycle distribution S (RPMI 8226 cells; RPMI 8226, 10 µM, 48 h): 18.61±4.5 % of cells
- Cell cycle distribution Sub-G1 (RPMI 8226 cells; RPMI 8226, 10 µM, 48 h): 28.01±5.09 % of cells
- Cell cycle distribution G0/G1 (RPMI 8226 cells; RPMI 8226, 20 µM, 24 h): 42.63±4.03 % of cells
- Cell cycle distribution G2 (RPMI 8226 cells; RPMI 8226, 20 µM, 24 h): 15.7±5.79 % of cells
- Cell cycle distribution S (RPMI 8226 cells; RPMI 8226, 20 µM, 24 h): 19.83±2.92 % of cells
- Cell cycle distribution Sub-G1 (RPMI 8226 cells; RPMI 8226, 20 µM, 24 h): 24.09±2.62 % of cells
- Cell cycle distribution G0/G1 (RPMI 8226 cells; RPMI 8226, 20 µM, 48 h): 31.66±10.94 % of cells
- Cell cycle distribution G2 (RPMI 8226 cells; RPMI 8226, 20 µM, 48 h): 17.47±1.42 % of cells
- Cell cycle distribution S (RPMI 8226 cells; RPMI 8226, 20 µM, 48 h): 20.74±2.14 % of cells
- Cell cycle distribution Sub-G1 (RPMI 8226 cells; RPMI 8226, 20 µM, 48 h): 29.68±10.49 % of cells
